From US20240360178A1, “MACROCYCLIC IMMUNOMODULATORS” (Bristol-Myers Squibb Company, priority 2021, published 2024)
Positions of bridges follow the written chain, without caps; N, C: chain ends. Non-standard residues stand in square brackets, D forms with d. Residues, ends and D or L forms follow the SMILES beside them. ξ: configuration not given here. *: point of attachment. Bip = N[C@@H](Cc1ccc(-c2ccccc2)cc1)C(=O)O; dPro(4S-NH2) = N[C@@H]1CN[C@@H](C(=O)O)C1; Phe(3-CN) = N#Cc1cccc(C[C@H](N)C(=O)O)c1; Phe(3-OMe) = COc1cccc(C[C@H](N)C(=O)O)c1; Phe(4-NH2) = Nc1ccc(C[C@H](N)C(=O)O)cc1; Phe(3-Me) = Cc1cccc(C[C@H](N)C(=O)O)c1; NMeF = CN[C@@H](Cc1ccccc1)C(=O)O; 4Pal = N[C@@H](Cc1ccncc1)C(=O)O; Cha = N[C@@H](CC1CCCCC1)C(=O)O; Cit = NC(=O)NCCC[C@H](N)C(=O)O; Carboxymethyl = O=C(O)C*; NMeA = CN[C@@H](C)C(=O)O; Orn = NCCC[C@H](N)C(=O)O; Dab = NCC[C@H](N)C(=O)O; Dap = NC[C@H](N)C(=O)O; ξV = CC(C)C(N)C(=O)O; Sar = CNCC(=O)O

Biological target: T1, human PD-1 (Jurkat-PD-1 cells) / PE-labeled human PD-L1-Ig (Homo sapiens, UniProt Q15116)
T1 construct: expressed in transfected cells; host or cells: Jurkat cell line over-expressing human PD-1
T1 sequence (Q15116 25-288): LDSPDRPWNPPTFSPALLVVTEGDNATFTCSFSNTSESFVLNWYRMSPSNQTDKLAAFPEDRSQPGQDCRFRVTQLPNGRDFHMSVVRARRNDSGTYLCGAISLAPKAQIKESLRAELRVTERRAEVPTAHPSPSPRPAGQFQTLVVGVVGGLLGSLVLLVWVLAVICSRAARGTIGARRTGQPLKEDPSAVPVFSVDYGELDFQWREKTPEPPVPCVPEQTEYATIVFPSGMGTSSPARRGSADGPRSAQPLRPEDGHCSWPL
Assay: Jurkat-PD-1 Cell Binding High-Content Screening Assay (CBA); Jurkat hPD1-PDL1 assay
Conditions: Jurkat cell line over-expressing human PD-1; PE-labeled PD-L1-Ig 20 nM final; compound incubated 2 hours at 37° C.; read-out: Jurkat HPD1-PDL1 IC50
Summary of the method: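 Jurkat-hPD-1 cells; cpd 2 h, 37° C; then PE-PD-L1-Ig 20 nM final in DMEM/10% FCS; high-content imaging read-out.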

SMILES	IC50 [nM]
CC(C)C[C@@H]1NC(=O)[C@H](CCCNC(=N)N)NC(=O)[C@H](Cc2ccccc2)N(C)C(=O)[C@H](C)N(C)C(=O)[C@H](CCCNC(=N)N)NC(=O)[C@H](Cc2ccc(-c3ccccc3)cc2)NC(=O)[C@H](C(C)C)NC(=O)[C@H](Cc2c[nH]c3ccccc23)NC(=O)[C@H](CC(=O)O)NC(=O)[C@H](CCCCN)NC(=O)[C@H](Cc2ccccc2)NC(=O)CSC[C@@H](C(=O)NCC(N)=O)NC(=O)[C@H](CO)NC(=O)[C@H](C(C)C)NC1=O [Example 1213] ({CH2CO}-FKDWV[Bip]R[NMeA][NMeF]RLVSCG-NH2; thioether N-14)	590
Cc1cccc(C[C@@H]2NC(=O)[C@H](CC(=O)O)NC(=O)[C@H](Cc3ccc(OCC(=O)O)cc3)NC(=O)[C@H](CN)NC(=O)CSC[C@@H](C(=O)N[C@@H](C)C(N)=O)NC(=O)[C@H]([C@@H](C)O)NC(=O)[C@H](C(C)C)NC(=O)[C@H](CC3CCCCC3)NC(=O)[C@H](CCN)NC(=O)[C@H](Cc3ccccc3)N(C)C(=O)[C@H](CCCN)NC(=O)[C@H](CCC(=O)O)NC(=O)[C@H](Cc3ccc(-c4ccccc4)cc3)NC(=O)C(C(C)C)NC2=O)c1 (stereo partly shown) [Example 1448] ({CH2CO}-[Dap]Y(Carboxymethyl)D[Phe(3-Me)][ξV][Bip]E[Orn][NMeF][Dab][Cha]VTCA-NH2; thioether N-14)	30
CC(C)C[C@@H]1NC(=O)[C@H](CCCNC(=N)N)NC(=O)[C@H](Cc2ccccc2)N(C)C(=O)[C@H](CN)NC(=O)[C@H](CCCNC(=N)N)NC(=O)[C@H](Cc2ccc(-c3ccccc3)cc2)NC(=O)[C@H](C(C)C)NC(=O)[C@H](Cc2c[nH]c3ccccc23)NC(=O)[C@H](CC(=O)O)NC(=O)[C@H](Cc2ccc(O)cc2)NC(=O)[C@H](CC(N)=O)NC(=O)CSC[C@@H](C(=O)N[C@@H](C)C(N)=O)NC(=O)[C@H]([C@@H](C)O)NC(=O)[C@H](C(C)C)NC1=O [Example 1364] ({CH2CO}-NYDWV[Bip]R[Dap][NMeF]RLVTCA-NH2; thioether N-14)	590
CC(C)C[C@@H]1NC(=O)[C@H](Cc2c[nH]c3ccccc23)NC(=O)[C@H](CC(=O)O)NC(=O)[C@H](Cc2ccc(N)cc2)NC(=O)[C@H](Cc2ccccc2)NC(=O)CSC[C@@H](C(=O)N[C@@H](C)C(N)=O)NC(=O)[C@H](CO)NC(=O)[C@H](C(C)C)NC(=O)[C@H](CC(C)C)NC(=O)[C@H](CC(N)=O)NC(=O)CN(C)C(=O)[C@H](C)N(C)C(=O)[C@H](C(C)C)NC(=O)[C@H](Cc2ccc(-c3ccccc3)cc2)NC1=O [Example 1076] ({CH2CO}-F[Phe(4-NH2)]DWL[Bip]V[NMeA][Sar]NLVSCA-NH2; thioether N-14)	210
CC(C)C[C@@H]1NC(=O)[C@H](Cc2c[nH]c3ccccc23)NC(=O)[C@H](CC(=O)O)NC(=O)[C@H](Cc2ccc(O)cc2)NC(=O)[C@H](Cc2ccccc2)NC(=O)CSC[C@@H](C(=O)N[C@@H](C)C(N)=O)NC(=O)[C@H](CO)NC(=O)[C@H](C(C)C)NC(=O)[C@H](CC(C)C)NC(=O)[C@H](CC(N)=O)NC(=O)[C@H]2C[C@H](N)CN2C(=O)[C@H]2CCCN2C(=O)[C@H](C(C)C)NC(=O)[C@H](Cc2ccc(-c3ccccc3)cc2)NC1=O [Example 1175] ({CH2CO}-FYDWL[Bip]V[dP][dPro(4S-NH2)]NLVSCA-NH2; thioether N-14)	500
CC(C)C[C@@H]1NC(=O)[C@H](CCCNC(=N)N)NC(=O)[C@H](Cc2ccccc2)N(C)C(=O)[C@H](C)N(C)C(=O)[C@H](CCC(=O)O)NC(=O)[C@H](Cc2ccc(-c3ccccc3)cc2)NC(=O)[C@H](C(C)C)NC(=O)[C@H](Cc2c[nH]c3ccccc23)NC(=O)[C@H](CC(=O)O)NC(=O)[C@H](Cc2ccc(O)cc2)NC(=O)[C@H](CC(N)=O)NC(=O)CSC[C@@H](C(=O)N[C@@H](C)C(N)=O)NC(=O)[C@H]([C@@H](C)O)NC(=O)[C@H](C(C)C)NC1=O [Example 1379] ({CH2CO}-NYDWV[Bip]E[NMeA][NMeF]RLVTCA-NH2; thioether N-14)	40
CC(C)C[C@@H]1NC(=O)[C@H](CCN)NC(=O)[C@H](Cc2ccccc2)N(C)C(=O)[C@H](C)N(C)C(=O)[C@H](CCCNC(=N)N)NC(=O)[C@H](Cc2ccc(-c3ccccc3)cc2)NC(=O)[C@H](C(C)C)NC(=O)[C@H](Cc2c[nH]c3ccccc23)NC(=O)[C@H](CC(=O)O)NC(=O)[C@H](Cc2ccc(O)cc2)NC(=O)[C@H](CCC(N)=O)NC(=O)CSC[C@@H](C(=O)NCC(N)=O)NC(=O)[C@H](CO)NC(=O)[C@H](C(C)C)NC1=O [Example 1309] ({CH2CO}-QYDWV[Bip]R[NMeA][NMeF][Dab]LVSCG-NH2; thioether N-14)	340
Cc1cccc(C[C@@H]2NC(=O)[C@H](CC(=O)O)NC(=O)[C@H](Cc3ccncc3)NC(=O)[C@H](CN)NC(=O)CSC[C@@H](C(=O)N[C@@H](C)C(N)=O)NC(=O)[C@H]([C@@H](C)O)NC(=O)[C@H](C(C)C)NC(=O)[C@H](CC3CCCCC3)NC(=O)[C@H](CCN)NC(=O)[C@H](Cc3ccccc3)N(C)C(=O)[C@H](CCCN)NC(=O)[C@H](CCC(=O)O)NC(=O)[C@H](Cc3ccc(-c4ccccc4)cc3)NC(=O)C(C(C)C)NC2=O)c1 (stereo partly shown) [Example 1445] ({CH2CO}-[Dap][4Pal]D[Phe(3-Me)][ξV][Bip]E[Orn][NMeF][Dab][Cha]VTCA-NH2; thioether N-14)	10
CC(C)C[C@@H]1NC(=O)[C@H](Cc2c[nH]c3ccccc23)NC(=O)[C@H](CC(=O)O)NC(=O)[C@H](Cc2ccc(O)cc2)NC(=O)[C@H](Cc2ccccc2)NC(=O)CSC[C@@H](C(=O)N[C@@H](C)C(N)=O)NC(=O)[C@H](CO)NC(=O)[C@H](C(C)C)NC(=O)[C@H](CC(C)C)NC(=O)[C@H](CC(N)=O)NC(=O)[C@H]2CCCN2C(=O)[C@H](C)N(C)C(=O)[C@H](CCC(=O)O)NC(=O)[C@H](Cc2ccc(-c3ccccc3)cc2)NC1=O [Example 1039] ({CH2CO}-FYDWL[Bip]E[NMeA][dP]NLVSCA-NH2; thioether N-14)	70
CC(C)C[C@@H]1NC(=O)[C@H](CCCNC(=N)N)NC(=O)[C@H](Cc2ccccc2)N(C)C(=O)[C@H](C)N(C)C(=O)[C@H](CCCNC(=N)N)NC(=O)[C@H](Cc2ccc(-c3ccccc3)cc2)NC(=O)[C@H](C(C)C)NC(=O)[C@H](Cc2c[nH]c3ccccc23)NC(=O)[C@H](CC(=O)O)NC(=O)[C@H](Cc2ccc(O)cc2)NC(=O)[C@H](Cc2ccccc2)NC(=O)CSC[C@@H](C(=O)N[C@H](C)C(N)=O)NC(=O)[C@H](CO)NC(=O)[C@H](C(C)C)NC1=O [Example 1331] ({CH2CO}-FYDWV[Bip]R[NMeA][NMeF]RLVSC[dA]-NH2; thioether N-14)	80
COc1cccc(C[C@@H]2NC(=O)[C@H](CC(=O)O)NC(=O)[C@H](Cc3cccc(C#N)c3)NC(=O)[C@H](CN)NC(=O)CSC[C@@H](C(=O)N[C@@H](C)C(N)=O)NC(=O)[C@H](CO)NC(=O)[C@H](C(C)C)NC(=O)[C@H](CC(C)C)NC(=O)[C@H](CC(N)=O)NC(=O)[C@H]3CCCN3C(=O)[C@H](C)N(C)C(=O)[C@H](C(C)C)NC(=O)[C@H](Cc3ccc(-c4ccccc4)cc3)NC(=O)[C@H](CC(C)C)NC2=O)c1 [Example 1393] ({CH2CO}-[Dap][Phe(3-CN)]D[Phe(3-OMe)]L[Bip]V[NMeA][dP]NLVSCA-NH2; thioether N-14)	20
CC(C)C[C@@H]1NC(=O)[C@H](Cc2c[nH]c3ccccc23)NC(=O)[C@H](CC(=O)O)NC(=O)[C@H](Cc2ccc(O)cc2)NC(=O)[C@H](Cc2ccncc2)NC(=O)CSC[C@@H](C(=O)N[C@@H](C)C(N)=O)NC(=O)[C@H](CO)NC(=O)[C@H](C(C)C)NC(=O)[C@H](CC(C)C)NC(=O)[C@H](CC(N)=O)NC(=O)[C@H]2CCCN2C(=O)[C@H](C)N(C)C(=O)[C@H](C(C)C)NC(=O)[C@H](Cc2ccc(-c3ccccc3)cc2)NC1=O [Example 1023] ({CH2CO}-[4Pal]YDWL[Bip]V[NMeA][dP]NLVSCA-NH2; thioether N-14)	40
CC(C)C[C@@H]1NC(=O)[C@H](CCCCN)NC(=O)[C@H](Cc2ccccc2)N(C)C(=O)[C@H](C)N(C)C(=O)[C@H](CCCNC(=N)N)NC(=O)[C@H](Cc2ccc(-c3ccccc3)cc2)NC(=O)[C@H](C(C)C)NC(=O)[C@H](Cc2c[nH]c3ccccc23)NC(=O)[C@H](CC(=O)O)NC(=O)[C@H](Cc2ccc(O)cc2)NC(=O)[C@H](CC(N)=O)NC(=O)CSC[C@@H](C(=O)N[C@@H](CCC(=O)O)C(N)=O)NC(=O)[C@H]([C@@H](C)O)NC(=O)[C@H](C(C)C)NC1=O [Example 1360] ({CH2CO}-NYDWV[Bip]R[NMeA][NMeF]KLVTCE-NH2; thioether N-14)	570
CC(C)C[C@@H]1NC(=O)[C@H](CCCNC(=N)N)NC(=O)[C@H](Cc2ccccc2)N(C)C(=O)[C@H](C)N(C)C(=O)[C@H](CCCNC(N)=O)NC(=O)[C@H](Cc2ccc(-c3ccccc3)cc2)NC(=O)[C@H](C(C)C)NC(=O)[C@H](Cc2c[nH]c3ccccc23)NC(=O)[C@H](CC(=O)O)NC(=O)[C@H](Cc2ccc(O)cc2)NC(=O)[C@H](CC(N)=O)NC(=O)CSC[C@@H](C(=O)N[C@@H](C)C(N)=O)NC(=O)[C@H](CO)NC(=O)[C@H](C(C)C)NC1=O [Example 1377] ({CH2CO}-NYDWV[Bip][Cit][NMeA][NMeF]RLVSCA-NH2; thioether N-14)	40
CC(C)C[C@@H]1NC(=O)[C@H](Cc2c[nH]c3ccccc23)NC(=O)[C@H](CC(=O)O)NC(=O)[C@H](Cc2ccc(O)cc2)NC(=O)[C@H](Cc2ccccc2)NC(=O)CSC[C@@H](C(=O)NCC(N)=O)NC(=O)[C@H](CO)NC(=O)[C@H](C(C)C)NC(=O)[C@H](CC(C)C)NC(=O)[C@H](CCN)NC(=O)[C@H]2CCCN2C(=O)[C@H](C)N(C)C(=O)[C@H](C(C)C)NC(=O)[C@H](Cc2ccc(-c3ccccc3)cc2)NC1=O [Example 1399] ({CH2CO}-FYDWL[Bip]V[NMeA][dP][Dab]LVSCG-NH2; thioether N-14)	70
CC(C)C[C@@H]1NC(=O)[C@H](Cc2c[nH]c3ccccc23)NC(=O)[C@H](CC(=O)O)NC(=O)[C@H](Cc2ccc(O)cc2)NC(=O)[C@H](Cc2ccccc2)NC(=O)CSC[C@@H](C(=O)N[C@@H](C)C(N)=O)NC(=O)[C@H](CO)NC(=O)[C@H](C(C)C)NC(=O)[C@H](CC(C)C)NC(=O)[C@H](CCCCN)NC(=O)CN(C)C(=O)[C@H](C)N(C)C(=O)[C@H](C(C)C)NC(=O)[C@H](Cc2ccc(-c3ccccc3)cc2)NC1=O [Example 1099] ({CH2CO}-FYDWL[Bip]V[NMeA][Sar]KLVSCA-NH2; thioether N-14)	310
